According to publication PMC8268887, “Peptide/β-Peptoid Hybrids with Ultrashort PEG-Like Moieties: Effects on Hydrophobicity, Antibacterial Activity and Hemolytic Properties” (International Journal of Molecular Sciences, 2021):
Values after ≈ are worked out from the molar mass of the structure shown. Like-named read-outs stand apart in the source and are kept apart here.

Legend:
[1] = system: S. aureus ATCC 29213; type: cell-based, Staphylococcus aureus; conditions: ATCC 29213, 20 h
Method: (§1) MIC values of the peptidomimetics were evaluated by using the modified Hancock lab protocol in non-binding polystyrene microtiter plates. Bacterial suspensions of ~5 × 10^5 CFU/mL in Mueller-Hinton broth (Difco, Sparks, MD, USA) were prepared with Mg^2+ and Ca^2+ concentrations of 4 mg/L each. The compounds were dissolved in H2O and diluted in 0.01% acetic acid, 0.2% BSA (final concentration). Aliquots (11 µL) of test compounds were then transferred to wells containing bacterial suspensions (100 µL). Low-binding sterile tubes and tips (Axygen, Union City, CA, USA) were used for preparation and transfer of the solutions of the compounds. Following incubation for 20 h of the covered plates at 35 °C (±2 °C) with circular shaking at 180 rpm, the MICs were read.

[2] = Antiproliferative activity on HepG2 cell line (MTT assay); type: cell-based; conditions: HepG2 cells; at 1280 µg/mL, value in parenthesis; read-out: HepG2 cell viability at highest concentration tested
Method: (§2) Effect of compounds on mammalian cell viability was estimated on the HepG2 cell line ATCC HB-8065. In brief, HepG2 cells were seeded into flat-bottomed 96-well plates at a concentration of 5000 cells per well. Subsequently, the cells were incubated for 24 h in a humidified incubator (5% CO2, 37 °C). Then, the medium was removed, and the cells were incubated for 48 h in a humidified incubator (5% CO2, 37 °C) with peptidomimetics in serial dilutions. Then, an 3-(4,5-dimethylthiazol-2-yl)-2,5-diphenyltetrazolium bromide (MTT) assay was performed as previously described. In brief, after incubation with the test compounds, the culture medium was removed, and then fresh medium with 0.2 mg/mL MTT was added into each well of the plate. The cells were then incubated (3 h, 37 °C, 5% CO2), followed by removal of the medium with MTT and addition of 200 μL dimethyl sulfoxide at once to each sample. Absorbance of MTT was measured using the spectrophotometer TECAN Infinite M1000 at 540 nm. The relative viability was calculated by using the formula: ODtreated cells × 100/ODcontrol cells. The IC50 values are calculated by using the program Graph Pad Prism® 5.0. For all compounds, the test range was 10–1280 μg/mL.

[3] = system: HepG2 cell line ATCC HB-8065; experiment: as above; type: cell-based; conditions: inhibition of growth of HepG2 cells, 48 h, MTT; highest concentration tested 1280 µg/mL
Method: as §2

[4] = system: A. baumannii ATCC 19606; type: cell-based, Acinetobacter baumannii; conditions: ATCC 19606, 20 h
Method: as §1

[5] = system: A. baumannii NMI 3658/17; type: cell-based, Acinetobacter baumannii; conditions: NMI 3658/17, 20 h
Method: as §1

[6] = system: E. coli ATCC 25922; type: cell-based, Escherichia coli; conditions: ATCC 25922, 20 h
Method: as §1

[7] = system: E. coli NMI 3898/15; type: cell-based, Escherichia coli; conditions: NMI 3898/15, 20 h
Method: as §1

[8] = system: E. coli NMI 3371/16; type: cell-based, Escherichia coli; conditions: NMI 3371/16, 20 h
Method: as §1

[9] = system: P. aeruginosa PAO1; type: cell-based, Pseudomonas aeruginosa; conditions: PAO1, 20 h
Method: as §1

[10] = system: P. aeruginosa NMI 7197/19; type: cell-based, Pseudomonas aeruginosa; conditions: NMI 7197/19, 20 h
Method: as §1

[11] = system: E. faecalis ATCC 29212; type: cell-based; conditions: ATCC 29212, 20 h
Method: as §1

[12] = system: K. pneumoniae ATCC 13883; type: cell-based
Method: as §1

[13] = Hydrophobicity by retention in analytical RP-HPLC (% MeCN at peak elution); type: physicochemical; conditions: for % MeCN at Elution, Aeris Peptide: Phenomenex Aeris Peptide XB-C18 column; for % MeCN at Elution, Aeris Peptide / % MeCN at Elution, Luna Omega / % MeCN at Elution, Supelco Discovery: gradient 0→60% B during 15 min; for % MeCN at Elution, Luna: Phenomenex Luna C18(2) column, RP-HPLC gradient 0→60% B during 15 min, relative hydrophobicity; for % MeCN at Elution, Luna Omega: Phenomenex Luna Omega Polar C18 column; for % MeCN at Elution, Supelco Discovery: Supelco Discovery BIO Wide pore C18 column
Method: For each peptide/β-peptoid hybrid oligomer, the retention time in RP-HPLC was measured on four different columns (details shown in Table 2): Phenomenex Luna C18(2) column (recommended for hydrophobic compounds [49]), Phenomenex Luna Omega Polar C18 column (recommended for both very polar and non-polar compounds [50]) as well as Phenomenex Aeris Peptide XB-C18 [51] and Sigma-Aldrich Supelco Discovery BIO Wide pore C18 [52] columns, which both are recommended for analysis of peptides. The retention times of the compounds on each column were used to calculate the acetonitrile concentration at peak elution (denoted merely as % MeCN; Table 1). As expected, the % MeCN for each compound varied somewhat between the four columns.
Starting materials and solvents were acquired from commercial suppliers (Iris Biotech, Markredwitz, Germany; Fluorochem, Hadfield, UK; and Merck, Darmstadt, Germany) and used without further purification. Water used for analytical and preparative high-performance liquid chromatography (HPLC) was filtered through a 0.22-μm capsule filter using an Evoqua LaboStar Pro TWF UV system. Purity and retention time of each peptidomimetic were determined by analytical HPLC by using a Phenomenex Luna Omega Polar C18 column (150 × 4.6 mm; particle size: 3 μm; pore size: 100 Å) on a Shimadzu Prominence and Shimadzu Nexera system using an aqueous acetonitrile (MeCN, VWR, Søborg, Denmark) gradient with 0.1% trifluoroacetic acid (TFA, Iris Biotech, Markredwitz, Germany) added (eluent A: 5:95 MeCN–H2O + 0.1% TFA, eluent B: 95:5 MeCN–H2O + 0.1% TFA); a flow rate of 0.8 mL/min was used. For elution of peptidomimetics, a linear gradient of 0% to 60% B during 15 min was used with UV detection at λ = 220 nm. […] Retention time of each peptidomimetic was also determined by using a Phenomenex Luna C18(2) column (150 × 4.6 mm; particle size: 3 μm; pore size: 100 Å), a Phenomenex Aeris Peptide XB-C18 column (150 × 4.6 mm; particle size: 3.6 μm; pore size: 100 Å), and a Sigma-Aldrich Supelco Discovery BIO Wide pore C18 column (150 × 4.6 mm, particle size: 3 µm; pore size: 300 Å). For each peptidomimetic, the percentage of MeCN at peak elution was calculated from the retention time by using the following formula:(1) %MeCN =0.95 (0.6Rt/15 min)+0.05 (1−0.6Rt/15 min)

[14] = Determination of hemolytic activity; type: cell-based; conditions: red blood cell suspension in PBS buffer, human red blood cells at 400 µg/mL, 37 °C
Method: The lysis of human red blood cells was measured almost as previously described, albeit with modifications. In brief, a suspension of freshly drawn human red blood cells (hRBCs) was washed three times with PBS buffer and centrifuged two times for 5 min at 2500 rpm. A two-fold serial dilution of compounds in PBS buffer was prepared. Plates (conical-bottomed 96-well plates) with three replicate wells per dilution, each containing 1% red blood cell suspension, were prepared and dosed with the test compound to achieve a final concentration of 400 μg/mL in a total volume of 100 μL. The plates were incubated (37 °C) for 60 min with mild agitation, and then the cells were pelleted by centrifugation at 1500 rpm for 5 min. The supernatants (50 μL) were then transferred to a fresh 96-well plate, and the concentration of hemoglobin was detected by measuring the OD at 405 nm. The OD of cells incubated with 1% SDS defined 100% hemolysis, while the OD of cells incubated with PBS buffer defined 0% hemolysis. The concentration tested was 400 μg/mL (only average values are stated in Table 5). The percent hemolysis was calculated by using the formula:(3) Hemolysis (%)=100×[Asample−Aneg.control/Apos.control−Aneg.control]

[15] = rat, in vivo; cited from earlier work

MIC, SA [1] | HepG2 IC50 [3] | MIC, AB [4] | MIC, A. baumannii NMI 3658/17 [5] | MIC, EC [6] | MIC, E. coli NMI 3898/15 [7] | MIC, E. coli NMI 3371/16 [8] | MIC, PA [9] | MIC, P. aeruginosa NMI 7197/19 [10] | MIC, EF [11] | MIC, KP ([12]; ATCC 13883, 20 h) | % MeCN at Elution, Aeris Peptide [13] | % MeCN at Elution, Luna [13] | % MeCN at Elution, Luna Omega [13] | % MeCN at Elution, Supelco Discovery [13] | MIC against E. coli [6] | MIC, KP [12] | Molecule | viability at 48 h [2] | hemolysis at 60 min [14] | elimination half-life [15]
>64 µg/mL | ~1280 µg/mL | 16 to 32 µg/mL | 16 µg/mL (≈ 7.14 µM) | 8 µg/mL (≈ 3.57 µM) | 32 µg/mL (≈ 14.3 µM) | 8 to 16 µg/mL | >64 µg/mL | >64 µg/mL | >64 µg/mL | >64 µg/mL | 39.8 % MeCN | 41.8 % MeCN | 42.4 % MeCN | 42.0 % MeCN |  |  | NCCCC[C@H](NC(=O)CCN(Cc1ccc(F)cc1)C(=O)[C@H](CCCCN)NC(=O)COCCOCCOCCNC(=O)CCN(Cc1ccc(F)cc1)C(=O)[C@H](CCCCN)NC(=O)CCN(Cc1ccc(F)cc1)C(=O)[C@H](CCCCN)NC(=O)COCCOCCOCCNC(=O)CCN(Cc1ccc(F)cc1)C(=O)[C@H](CCCCN)NC(=O)CCN(Cc1ccc(F)cc1)C(=O)[C@@H](N)CCCCN)C(=O)N(CCC(N)=O)Cc1ccc(F)cc1 [Compound 17, H-[X]2-sPEG3-[X]2-sPEG3-[X]2-NH2] | 35% | 9.4% | 
>64 µg/mL | ~1280 µg/mL | 8 to 16 µg/mL | 16 µg/mL (≈ 6.79 µM) | 4 to 8 µg/mL | 16 µg/mL (≈ 6.79 µM) | 8 to 16 µg/mL | >64 µg/mL | >64 µg/mL | >64 µg/mL | 64 µg/mL (≈ 27.2 µM) | 40.1 % MeCN | 42.1 % MeCN | 42.7 % MeCN | 42.3 % MeCN | 1.2 to 2.4 µM |  | NCCCC[C@H](NC(=O)CCN(Cc1ccc(F)cc1)C(=O)[C@H](CCCCN)NC(=O)CCOCCOCCOCCOCCNC(=O)CCN(Cc1ccc(F)cc1)C(=O)[C@H](CCCCN)NC(=O)CCN(Cc1ccc(F)cc1)C(=O)[C@H](CCCCN)NC(=O)CCOCCOCCOCCOCCNC(=O)CCN(Cc1ccc(F)cc1)C(=O)[C@H](CCCCN)NC(=O)CCN(Cc1ccc(F)cc1)C(=O)[C@@H](N)CCCCN)C(=O)N(CCC(N)=O)Cc1ccc(F)cc1 [Compound 18, H-[X]2-sPEG4-[X]2-sPEG4-[X]2-NH2] | 41% | 8.3% | 
32 to 64 µg/mL | 761 µg/mL | 4 to 8 µg/mL | 4 µg/mL (≈ 2.04 µM) | 4 µg/mL (≈ 2.04 µM) | 8 µg/mL (≈ 4.08 µM) | 4 µg/mL (≈ 2.04 µM) | 32 µg/mL (≈ 16.3 µM) | >64 µg/mL |  |  | 39.2 % MeCN | 41.2 % MeCN | 41.6 % MeCN | 41.4 % MeCN |  | 64–>64 | NCCCC[C@H](NC(=O)CCN(Cc1ccc(F)cc1)C(=O)[C@H](CCCCN)NC(=O)CCN(Cc1ccc(F)cc1)C(=O)[C@H](CCCCN)NC(=O)COCCNC(=O)CCN(Cc1ccc(F)cc1)C(=O)[C@H](CCCCN)NC(=O)CCN(Cc1ccc(F)cc1)C(=O)[C@H](CCCCN)NC(=O)CCN(Cc1ccc(F)cc1)C(=O)[C@@H](N)CCCCN)C(=O)N(CCC(N)=O)Cc1ccc(F)cc1 [Compound 6, H-[X]3-sPEG1-[X]3-NH2] | 6% | 7.7% | 

The next lines start with the molecule.

Molecule | MIC, SA [1] | HepG2 IC50 [3] | MIC, AB [4] | MIC, A. baumannii NMI 3658/17 [5] | MIC, EC [6] | MIC, E. coli NMI 3898/15 [7] | MIC, E. coli NMI 3371/16 [8] | MIC, PA [9] | MIC, P. aeruginosa NMI 7197/19 [10] | MIC, EF [11] | MIC, KP ([12]; ATCC 13883, 20 h) | % MeCN at Elution, Aeris Peptide [13] | % MeCN at Elution, Luna [13] | % MeCN at Elution, Luna Omega [13] | % MeCN at Elution, Supelco Discovery [13] | MIC against E. coli [6] | MIC, KP [12] | viability at 48 h [2] | hemolysis at 60 min [14] | elimination half-life [15]
NCCCC[C@H](NC(=O)CCN(Cc1ccc(F)cc1)C(=O)[C@H](CCCCN)NC(=O)CCN(Cc1ccc(F)cc1)C(=O)[C@H](CCCCN)NC(=O)COCCOCCOCCNC(=O)CCN(Cc1ccc(F)cc1)C(=O)[C@H](CCCCN)NC(=O)CCN(Cc1ccc(F)cc1)C(=O)[C@H](CCCCN)NC(=O)CCN(Cc1ccc(F)cc1)C(=O)[C@@H](N)CCCCN)C(=O)N(CCC(N)=O)Cc1ccc(F)cc1 [Compound 8, H-[X]3-sPEG3-[X]3-NH2] |  | 601 µg/mL | 4 to 8 µg/mL | 4 µg/mL (≈ 1.95 µM) | 4 µg/mL (≈ 1.95 µM) | 8 µg/mL (≈ 3.9 µM) | 4 µg/mL (≈ 1.95 µM) | 32 µg/mL (≈ 15.6 µM) | >64 µg/mL | >64 µg/mL | >64 µg/mL | 39.6 % MeCN | 41.7 % MeCN | 42.1 % MeCN | 41.9 % MeCN |  |  | 10% | 8.9% | 
VDKPPYLPRPRPIRrPGGr-NH2 [OM19r-8] |  |  |  |  |  |  |  |  |  |  |  |  |  |  |  |  |  |  |  | 1.6 min
